Common to all, as to format: binding
The target of assay [1] is T1, human HER2 (23-652) (Homo sapiens, UniProt P04626). As to the kind of experiment: Surface plasmon resonance (SPR) for assessment of peptide affinity, human HER2. Also on record: towards human HER2 (23-652) and mouse HER2 (23-653); made in house. The settings on record: SPR, human HER2 extracellular domain, 25° C., 1:1 binding model; read-out: huHER2-SPR-ONC KD. As to the method: Each protein was immobilized either onto a SA sensorchip (Cytiva, BR-1005-31) or CM5 sensorchip (Cytiva, BR-1005-30) to a density of 800-2000 RU. […] For the assay setup the same conditions (flow rate, running buffer, peptide dilution) as described above were used. In a first step the Anti Fc IgG Ab (from Human Antibody Capture Kit, Ref. 29234600, Cytiva) was diluted into acetate pH 5.0 at 25 ug/mL and immobilized at a flow rate of 10 uL/min over 360 s to reach a density around 6000 RU. […] The peptides were tested with an association time of 280 s followed by a dissociation time of 3000 s at a flow rate of 30 uL/min. The regeneration was done using 3 M magnesium chloride regeneration solution as obtained with a contact time of 30 s at a flow rate of 10 uL/min. Curve fitting was performed using the BiacoreTM 8K evaluation software.
In general terms: SPR reads the build-up and loss of mass on a sensor chip optically.

Assay [2] deals with mouse HER2 (23-653) (Mus musculus, UniProt P70424). As to the kind of experiment: TR-FRET competition assay for peptide potency, mouse HER2. Also on record: mouse HER2 (23-653) using a Cy5 labeled peptide as a probe; made in house; host or cells: mammalian cells. As to conditions: TR-FRET competition with Cy5 labeled peptide probe, 0.1 nM mouse HER2, 24 h incubation; read-out: moHER2 TR-FRET IC50. As to the method: (§1) Both proteins containing a His-, Avi-tag and biotin in Nterminus, were expressed in mammalian cells and produced in house. […] Standard assay conditions consist of 20 uL total volume in white 384-well plates (Greiner), in 10 mM HEPES buffer containing 150 mM NaCl, 3 mM EDTA, 0.05% Tween20 and 1% final DMSO. […] The ratiometric FRET assay readout is calculated from the ratio of the raw data of the two distinct fluorescence signals measured in time resolved mode (fluorescence 665 nm/fluorescence 620 nm). IC50 values were calculated with the standard Novartis in-house assay data analysis software (Helios software application, Novartis Institutes for BioMedical Research, unpublished) using the methods described in Comput. Methods. Programs. Biomed. 2006, 82, 31-37 (regression algorithms for nonlinear dose-response curve fitting).
Background: Time-resolved FRET reads energy transfer from a long-lived donor to a nearby acceptor.

Assay [3] addresses T1, human HER2 (23-652). As to the kind of experiment: TR-FRET competition assay for peptide potency, human HER2. Also on record: towards human HER2 (23-652) and mouse HER2 (23-653); made in house; host or cells: mammalian cells. As to conditions: read-out: huHER2 TR-FRET IC50. As to the method: as §1
The mark [4] stands for this setting: TR-FRET competition with Cy5 labeled peptide probe, 0.1 nM human HER2, 24 h incubation.

Where a name gives a salt, the structure may show the parent alone. Read-outs that look alike come from different tables or passages of the source. Starred links: 1 amine or outer side, 2 acyl side, 3 side chain; linkers in the order of their positions; H or OH if unused. Positions of bridges follow the written chain, without caps; N, C: chain ends. Non-standard residues stand in square brackets, D forms with d. Residues, ends and D or L forms follow the SMILES beside them. *: point of attachment. DOTA = O=C(O)CN1CCN(CC(=O)O)CCN(CC(=O)*)CCN(CC(=O)O)CC1; Trp(5-OH) = N[C@@H](Cc1c[nH]c2ccc(O)cc12)C(=O)O; X9 = CN([C@@H](CCc1cccc(Cl)c1)C(=O)[*:2])[*:1]; NMePhe(4-F) = CN[C@@H](Cc1ccc(F)cc1)C(=O)O; β2hAla(2S) = C[C@@H](CN[*:1])C(=O)[*:2]; NMehPhe = CN[C@@H](CCc1ccccc1)C(=O)O; NMeE = CN[C@@H](CCC(=O)O)C(=O)O; Aad = N[C@@H](CCCC(=O)O)C(=O)O; Gly(cPr) = N[C@H](C(=O)O)C1CC1; aThr = C[C@H](O)[C@H](N)C(=O)O; NMeK = CN[C@@H](CCCCN)C(=O)O; NMeDap = CN[C@@H](CN)C(=O)O; Tfa = O=C(C(F)(F)F)*

Among the data in patent publication US20250332300A1 (priority 2024, published 2025) are Kd and IC50 values, retold here.

Take `CC(=O)NCCCC[C@H]1C(=O)N[C@@H](Cc2c[nH]c3ccc(O)cc23)C(=O)N[C@@H](Cc2c[nH]c3ccccc23)C(=O)N[C@@H](C2CC2)C(=O)N(C)[C@H](C(=O)N(C)[C@@H](Cc2ccc(F)cc2)C(N)=O)CCC(=O)NC[C@H](C)C(=O)N[C@@H](Cc2ccc(O)cc2)C(=O)N[C@@H](CO)C(=O)N(C)[C@@H](CCc2ccccc2)C(=O)N1C` [Example A22, (3S,6S,9S,12S,15S,18S,21S,24S,30S)-6-((1H-indol-3-yl)methyl)-12-(4-acetamidobutyl)-N-((S)-1-amino-3-(4-fluorophenyl)-1-oxopropan-2-yl)-3-cyclopropyl-9-((5-hydroxy-1H-indol-3-yl)methyl)-21-(4-hydroxybenzyl)-18-(hydroxymethyl)-N,1,13,16,24-pentamethyl-2,5,8,11,14,17,20,23,27-nonaoxo-15-phenethyl-1,4,7,10,13,16,19,22,26-nonaazacyclotriacontane-30-carboxamide] ([β2hAla(2S)]YS[NMehPhe][NMeK](Ac)[Trp(5-OH)]W[Gly(cPr)][NMeE][NMePhe(4-F)]-NH2; lactam N-9): the dissociation constant Kd (commonly a measure of binding affinity in units of concentration) in assay [1] came to 9.7 nM. Also, in assay [2], the half-maximal inhibitory concentration (IC50) (in general, the concentration that inhibits the measured activity by half) was determined as 9.9 nM.

Turning to `CC(=O)N[C@H]1CCCC(=O)NC[C@@H](C(=O)N(C)[C@@H](Cc2ccc(F)cc2)C(=O)N[C@@H](CCCCNC(=O)CN2CCN(CC(=O)O)CCN(CC(=O)O)CCN(CC(=O)O)CC2)C(N)=O)N(C)C(=O)[C@H](C2CC2)NC(=O)[C@H](Cc2c[nH]c3ccccc23)NC(=O)[C@H](Cc2c[nH]c3ccc(O)cc23)NC(=O)[C@H](CCCCNC(=O)CO)N(C)C(=O)[C@H](CCc2ccccc2)N(C)C(=O)[C@H](CO)NC(=O)[C@H](Cc2ccc(O)cc2)NC1=O` [Example C20], the concentration for half-maximal inhibition (IC50) amounted to 0.1 nM in assay [3] (setting [4]) and 0.3 nM in assay [2].

As to `CC(=O)NCCCC[C@H]1C(=O)N[C@@H](Cc2c[nH]c3ccc(O)cc23)C(=O)N[C@@H](Cc2c[nH]c3ccccc23)C(=O)N[C@@H](C2CC2)C(=O)N(C)[C@H](C(=O)N(C)[C@@H](Cc2ccc(F)cc2)C(N)=O)CNC(=O)CCC[C@H](NC(=O)CN2CCN(CC(=O)O)CCN(CC(=O)O)CCN(CC(=O)O)CC2)C(=O)N[C@@H](Cc2ccc(O)cc2)C(=O)N[C@@H](CO)C(=O)N(C)[C@@H](CCc2ccccc2)C(=O)N1C` [Example C8] ({DOTA}-[Aad]YS[NMehPhe][NMeK](Ac)[Trp(5-OH)]W[Gly(cPr)][NMeDap][NMePhe(4-F)]-NH2; lactam 1-9), the IC50 in assay [3] (setting [4]) worked out at 2.1 nM; in assay [2], 3.3 nM.

For `CC(=O)NCCCC[C@H]1C(=O)N[C@@H](Cc2c[nH]c3ccc(O)cc23)C(=O)N[C@@H](Cc2c[nH]c3ccccc23)C(=O)N[C@@H](C2CC2)C(=O)N(C)[C@H](C(=O)N(C)[C@@H](Cc2ccc(F)cc2)C(=O)N[C@@H](CCCCNC(=O)CN2CCN(CC(=O)O)CCN(CC(=O)O)CCN(CC(=O)O)CC2)C(N)=O)CNC(=O)CCC[C@H](NC(C)=O)C(=O)N[C@H](Cc2ccc(O)cc2)C(=O)N[C@H](CO)C(=O)N(C)[C@@H](CCc2ccccc2)C(=O)N1C` [Example C3], the figures for the IC50 in assay [3] (setting [4]) and in assay [2] were more than 9500 nM and more than 10000 nM, respectively.

For `CC(=O)NCCCC[C@H]1C(=O)N[C@@H](Cc2c[nH]c3ccc(O)cc23)C(=O)N[C@@H](Cc2c[nH]c3ccccc23)C(=O)N[C@@H](C2CC2)C(=O)N(C)[C@H](C(=O)N(C)[C@@H](Cc2ccc(F)cc2)C(N)=O)CNC(=O)CCC[C@H](NC(C)=O)C(=O)N[C@@H](Cc2ccc(O)cc2)C(=O)N[C@@H](CO)C(=O)N(C)[C@@H](CCc2cccc(Cl)c2)C(=O)N1C` [Example A8, (3S,6S,9S,12S,15S,18S,21S,24S,27S)-9-((1H-indol-3-yl)methyl)-27-acetamido-15-(4-acetamidobutyl)-N-((S)-1-amino-3-(4-fluorophenyl)-1-oxopropan-2-yl)-18-(3-chlorophenethyl)-6-cyclopropyl-12-((5-hydroxy-1H-indol-3-yl)methyl)-24-(4-hydroxybenzyl)-21-(hydroxymethyl)-N,4,16,19-tetramethyl-5,8,11,14,17,20,23,26,31-nonaoxo-1,4,7,10,13,16,19,22,25-nonaazacyclohentriacontane-3-carboxamide] (Ac-[Aad]YS[X9][NMeK](Ac)[Trp(5-OH)]W[Gly(cPr)][NMeDap][NMePhe(4-F)]-NH2; lactam 1-9), in assay [1], the Kd was 1 nM. In addition, the IC50 in assay [2] was 2.3 nM.

As for `CC(=O)NCCCC[C@H]1C(=O)N[C@@H](Cc2c[nH]c3ccc(O)cc23)C(=O)N[C@@H](Cc2c[nH]c3ccccc23)C(=O)N[C@@H](C2CC2)C(=O)N(C)[C@H](C(=O)N(C)[C@@H](Cc2ccc(F)cc2)C(=O)N[C@@H](CCCCN)C(N)=O)CNC(=O)CCC[C@H](NC(C)=O)C(=O)N[C@H](Cc2ccc(O)cc2)C(=O)N[C@H](CO)C(=O)N(C)[C@@H](CCc2ccccc2)C(=O)N1C` [Example A48, TFA salt], the IC50 in assay [3] is 8300 nM; in assay [2] it was more than 10000 nM.

As for `CC(=O)N[C@H]1CCCC(=O)NC[C@@H](C(=O)N(C)[C@@H](Cc2ccc(F)cc2)C(N)=O)N(C)C(=O)[C@H](C2CC2)NC(=O)[C@H](Cc2c[nH]c3ccccc23)NC(=O)[C@H](Cc2c[nH]c3ccc(O)cc23)NC(=O)[C@H](CCCCNC(=O)C(F)(F)F)N(C)C(=O)[C@H](CCc2ccccc2)N(C)C(=O)[C@H](CO)NC(=O)[C@H](Cc2ccc(O)cc2)NC1=O` [Example A4, (3S,6S,9S,12S,15S,18S,21S,24S,27S)-9-((1H-indol-3-yl)methyl)-27-acetamido-N-((S)-1-amino-3-(4-fluorophenyl)-1-oxopropan-2-yl)-6-cyclopropyl-12-((5-hydroxy-1H-indol-3-yl)methyl)-24-(4-hydroxybenzyl)-21-(hydroxymethyl)-N,4,16,19-tetramethyl-5,8,11,14,17,20,23,26,31-nonaoxo-18-phenethyl-15-(4-(2,2,2-trifluoroacetamido)butyl)-1,4,7,10,13,16,19,22,25-nonaazacyclohentriacontane-3-carboxamide] (Ac-[Aad]YS[NMehPhe][NMeK](Tfa)[Trp(5-OH)]W[Gly(cPr)][NMeDap][NMePhe(4-F)]-NH2; lactam 1-9), the equilibrium dissociation constant (Kd) in assay [1] was 8.9 nM. In addition, the 50% inhibitory concentration (IC50) in assay [2] was 29 nM.

As for `CC(=O)NCCCC[C@H]1C(=O)N[C@@H](Cc2c[nH]c3ccc(O)cc23)C(=O)N[C@@H](Cc2c[nH]c3ccccc23)C(=O)N[C@@H]([C@H](C)O)C(=O)N(C)[C@H](C(=O)N(C)[C@@H](Cc2ccc(F)cc2)C(N)=O)CNC(=O)CCC[C@H](NC(C)=O)C(=O)N[C@@H](Cc2ccc(O)cc2)C(=O)N[C@@H](CO)C(=O)N(C)[C@@H](CCc2ccccc2)C(=O)N1C` [Example A6, (3S,6S,9S,12S,15S,18S,21S,24S,27S)-9-((1H-indol-3-yl)methyl)-27-acetamido-15-(4-acetamidobutyl)-N-((S)-1-amino-3-(4-fluorophenyl)-1-oxopropan-2-yl)-12-((5-hydroxy-1H-indol-3-yl)methyl)-24-(4-hydroxybenzyl)-6-((S)-1-hydroxyethyl)-21-(hydroxymethyl)-N,4,16,19-tetramethyl-5,8,11,14,17,20,23,26,31-nonaoxo-18-phenethyl-1,4,7,10,13,16,19,22,25-nonaazacyclohentriacontane-3-carboxamide] (Ac-[Aad]YS[NMehPhe][NMeK](Ac)[Trp(5-OH)]W[aThr][NMeDap][NMePhe(4-F)]-NH2; lactam 1-9), in assay [3], the IC50 was 1.3 nM.

Consider `CC(=O)NCCCC[C@H]1C(=O)N[C@@H](Cc2c[nH]c3ccc(O)cc23)C(=O)N[C@@H](C)C(=O)N[C@@H](C2CC2)C(=O)N(C)[C@H](C(=O)N(C)[C@@H](Cc2ccc(F)cc2)C(=O)N[C@@H](CCCCNC(=O)CN2CCN(CC(=O)O)CCN(CC(=O)O)CCN(CC(=O)O)CC2)C(N)=O)CNC(=O)CCC[C@H](NC(C)=O)C(=O)N[C@@H](Cc2ccc(O)cc2)C(=O)N[C@@H](CO)C(=O)N(C)[C@@H](CCc2ccccc2)C(=O)N1C` [Example C32] (Ac-[Aad]YS[NMehPhe][NMeK](Ac)[Trp(5-OH)]A[Gly(cPr)][NMeDap][NMePhe(4-F)]K(DOTA)-NH2; lactam 1-9), for which the IC50 in assay [3] (setting [4]) is 9810 nM; in assay [2], more than 10000 nM.
